Structures can show the parent of a compound that is named as a salt.
Tests used:
Format in all cases: physicochemical
[1] = Storage stability at different relative humidities, ambient temperature, 7 days (XRPD)
Method: (§1) X-ray diffraction was performed on X-Ray powder diffractometer: Bruker D8 Advance; CuKα radiation (λ=1.5418 Å); Lynx eye detector; laboratory temperature 22-25° C.; PMMA specimen holder ring with silicon low background. Prior to analysis, the samples were gently ground by means of mortar and pestle in order to obtain a fine powder. The ground sample was adjusted into a cavity of the sample holder and the surface of the sample was smoothed by means of a cover glass. • Scan range: 2-40 degrees 2-theta; • Scan mode: continuous; • Step size: 0.05 degrees; • Time per step: 0.5 s; • Sample spin: 30 rpm; • Sample holder: PMMA specimen holder ring with silicon low background. Samples of Nirogacestat dihydrobromide Form NT1 and Nirogacestat hydrobromide Form NHBr1 were subjected to conditions of different relative humidity at ambient temperature. XRPD analysis was performed on the samples after 7 days.

[2] = Storage stability at different relative humidity and temperatures, 6 months (XRPD); conditions: for XRPD analysis results, 25° C., 60% RH / XRPD analysis results, 40° C., 75% RH: 6 months
Method: as §1, with “NT1” for “NT1 and Nirogacestat hydrobromide Form NHBr1”, “different temperatures.” for “ambient temperature.”, “6 months.” for “7 days.”

[3] = Grinding experiments (strong grinding, solvent drop grinding; XRPD); conditions: for XRPD analysis results, strong grinding: about 20 mg ground with a pestle for 2 minutes, sample alone; for Stability to solvent drop grinding: isopropanol or no solvent
Method: X-ray diffraction was performed on X-Ray powder diffractometer: Bruker D8 Advance; CuKα radiation (λ=1.5418 Å); Lynx eye detector; laboratory temperature 22-25° C.; PMMA specimen holder ring with silicon low background. Prior to analysis, the samples were gently ground by means of mortar and pestle in order to obtain a fine powder. The ground sample was adjusted into a cavity of the sample holder and the surface of the sample was smoothed by means of a cover glass. • Scan range: 2-40 degrees 2-theta; • Scan mode: continuous; • Step size: 0.05 degrees; • Time per step: 0.5 s; • Sample spin: 30 rpm; • Sample holder: PMMA specimen holder ring with silicon low background. […] […] In these experiments, about 20 mg of the sample is placed in a mortar and ground with a pestle for 2 minutes. The solvent, when used, was added to the crystalline material before grinding, in a volume of 10 microlitres. XRPD analysis performed on the sample after the grinding experiment, confirmed no change in the starting material (Table 3):

[4] = Thermal stability, heating up to 100° C. (XRPD); conditions: heating up to 100° C. for 30 minutes
Method: as §1, with “to heating up to 100° C. for 30 minutes.” for “to conditions of different relative humidity at ambient temperature.”, “analysis of” for “analysis was performed on”, “the sample confirmed there to be no change in the starting material (Table 4): […]” for “the samples after 7 days.”

[5] = Stability under pressure of 2 tons
[6] = listed as Form NT1, dihydrobromide salt
[7] = listed as Nirogacestat dihydrobromide Form NT1, dihydrobromide salt
[8] = listed as Form NT1 of Nirogacestat dihydrobromide, dihydrobromide salt
[9] = listed as Nirogacestat dihydrobromide form NT1, dihydrobromide salt
[10] = listed as Form NHBr1 of Nirogacestat hydrobromide, hydrobromide salt
[11] = listed as Nirogacestat hydrobromide Form NHBr1, hydrobromide salt

## CCC[C@H](N[C@H]1CCc2cc(F)cc(F)c2C1)C(=O)Nc1cn(C(C)(C)CNCC(C)(C)C)cn1 [Nirogacestat dihydrobromide salt]
[1]; 20% RH, ambient temperature, 7 days, listed as Form NT1, dihydrobromide salt
  XRPD analysis results, relative humidity 20%: stable
[1]; 40% RH, ambient temperature, 7 days, listed as Form NT1, dihydrobromide salt
  XRPD analysis results, relative humidity 40%: stable
[1]; 60% RH, ambient temperature, 7 days, listed as Form NT1, dihydrobromide salt
  XRPD analysis results, relative humidity 60%: stable
[1]; 80% RH, ambient temperature, 7 days, listed as Form NT1, dihydrobromide salt
  XRPD analysis results, relative humidity 80%: stable
[1]; at least 7 days, summary of Table 1
  Stability after exposure to high and low relative humidity: stable
[2]; [6]
  XRPD analysis results, 25° C., 60% RH: stable
  XRPD analysis results, 40° C., 75% RH: stable
[2]; [7]
  XRPD analysis results, 25° C., 60% RH: No change
  XRPD analysis results, 40° C., 75% RH: No change
[2]; at least 6 months, summary of Table 2
  Stability after exposure to high and low relative humidity at different temperatures: stable
[3]; dihydrobromide salt
  XRPD analysis results, strong grinding: No change
[3]; [8]
  XRPD analysis results, strong grinding: stable
[3]; [7]
  XRPD analysis results, strong grinding: no change
  Stability to solvent drop grinding: no change
[3]; [9]
  XRPD analysis results, strong grinding: stable
  Stability to solvent drop grinding: stable
[3]; ground 2 minutes, 10 microlitres solvent, ethanol
  XRPD analysis results, solvent-drop grinding (ethanol): No change
[3]; ground 2 minutes, 10 microlitres solvent, water
  XRPD analysis results, solvent-drop grinding (water): No change
[3]; summary of Table 3
  Resistance to polymorphic changes on grinding: resistant to polymorphic changes
[4]; dihydrobromide salt
  Result, heating 100° C., 30 minutes: Stable
[4]; [8]
  Result, heating 100° C., 30 minutes: stable
[4]; [7]
  Result, heating 100° C., 30 minutes: no change
[4]; [9]
  Result, heating 100° C., 30 minutes: stable
[5]
  Stability under pressure: stable

## CCC[C@H](N[C@H]1CCc2cc(F)cc(F)c2C1)C(=O)Nc1cn(C(C)(C)CNCC(C)(C)C)cn1 [Nirogacestat hydrobromide salt]
[3]; hydrobromide salt
  XRPD analysis results, strong grinding: No change
[3]; [10]
  XRPD analysis results, strong grinding: stable
[3]; [11]
  XRPD analysis results, strong grinding: no change
  Stability to solvent drop grinding: no change
[4]; hydrobromide salt
  Result, heating 100° C., 30 minutes: Stable
[4]; [10]
  Result, heating 100° C., 30 minutes: stable
[4]; [11]
  Result, heating 100° C., 30 minutes: no change

Source: patent US20240408067A1, “SOLID STATE FORMS OF NIROGACESTAT SALTS” (TEVA PHARMACEUTICALS INTERNATIONAL GMBH, priority 2021, published 2024)
